Data on 25 molecules can be found in US20230271964A1, “5-AMINO-8-(4-PYRIDYL)-[1,2,4]TRIAZOLO[4,3-C]PYRIMIDIN-3-ONE COMPOUNDS FOR USE AGAINST CANCER” (ASTRAZENECA AB, priority 2020, published 2023).

Assay [1] deals with human adenosine A2A receptor (Homo sapiens (Human), UniProt P29274). Nature of the assay: Adenosine receptor inhibition binding assay, [3H]ZM241385, HEK293 A2A receptor membranes. The conditions noted are these: 1 nM [3H]ZM241385, HEK293-hA2A membranes, 25° C., 1 h; Ki from IC50 by Cheng-Prusoff. The protocol: (§1) Inhibition binding assays were performed using 0.2 µg of membranes prepared from HEK293 cells infected with BacMam human adenosine A2A receptor or 1.4 µg of membranes prepared from HEK293 cells infected with BacMam human adenosine A1 receptor. Membranes were incubated in 50 mM Tris-HCl (HEK293-hA2A; pH 7.4) or 50 mM Tris-HCl, 100 mM NaCl, 10 mM MgCl2 (CHO-hA1; pH 7.4) in the presence of varying concentrations of test compound and 1 nM [^3H]ZM241385 (HEK293-hA2A) or [^3H]DPCPX (CHO-hA1) at 25° C. for 1 h. The assay was then terminated by rapid filtration onto GF/B grade Unifilter plates using a TomTec cell harvester, followed by 5 × 0.5 ml washes with ddH2O. Nonspecific binding was defined in the presence of 1 µM CGS 15943 (HEK293-hA2A) or 1 µM DPCPX (CHO-hA1). Bound radioactivity was determined by liquid scintillation counting and inhibition curves were analysed using a four-parameter logistic equation. IC50 values were converted to Ki values with the Cheng-Prusoff equation using a KD value derived from saturation binding studies.
human adenosine A2A receptor, sequence (P29274 whole entry): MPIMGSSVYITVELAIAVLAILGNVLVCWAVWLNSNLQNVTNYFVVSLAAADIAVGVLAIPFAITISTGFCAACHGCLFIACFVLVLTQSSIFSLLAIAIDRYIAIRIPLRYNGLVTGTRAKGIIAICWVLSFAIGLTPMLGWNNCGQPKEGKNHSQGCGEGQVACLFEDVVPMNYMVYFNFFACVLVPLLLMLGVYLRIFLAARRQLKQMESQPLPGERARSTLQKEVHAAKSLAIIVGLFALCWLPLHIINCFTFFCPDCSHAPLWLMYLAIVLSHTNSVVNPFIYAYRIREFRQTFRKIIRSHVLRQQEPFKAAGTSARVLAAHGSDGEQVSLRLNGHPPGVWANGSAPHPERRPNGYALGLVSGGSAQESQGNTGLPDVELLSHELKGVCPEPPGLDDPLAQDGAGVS

The target of assay [2] is human adenosine A1 receptor (Homo sapiens (Human), UniProt P30542). Description: Adenosine receptor inhibition binding assay, [3H]DPCPX, A1 receptor membranes. Particulars: 1 nM [3H]DPCPX, 25° C., 1 h; Ki from IC50 by Cheng-Prusoff. The protocol:
as §1

human adenosine A1 receptor, sequence (P30542 whole entry): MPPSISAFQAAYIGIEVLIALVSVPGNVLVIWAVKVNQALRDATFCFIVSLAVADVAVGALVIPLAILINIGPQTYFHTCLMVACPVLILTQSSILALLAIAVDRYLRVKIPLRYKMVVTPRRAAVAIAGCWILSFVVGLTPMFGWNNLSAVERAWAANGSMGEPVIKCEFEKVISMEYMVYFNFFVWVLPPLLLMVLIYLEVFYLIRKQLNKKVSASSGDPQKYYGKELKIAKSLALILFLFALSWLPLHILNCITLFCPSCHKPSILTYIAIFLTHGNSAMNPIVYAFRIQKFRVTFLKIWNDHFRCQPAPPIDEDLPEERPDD

Take `Cc1cc(-c2c(-c3ccccc3)nc(N)n3c(=O)n(CCn4cccn4)nc23)cc(C)n1` [Example 1-1, 5-amino-8-(2,6-dimethyl-4-pyridyl)-7-phenyl-2-(2-pyrazol-1-ylethyl)-[1,2,4]triazolo[4,3-c]pyrimidin-3-one]: in assay [1], the “A2A pKi” value is given as 7.5. In assay [2], the “A1 pKi” value is 6.2.
In the case of `Cc1cc(-c2c(-c3ccccc3)nc(N)n3c(=O)n(CCc4nccn4C)nc23)cc(C)n1` [Example 1-2, 5-amino-8-(2,6-dimethyl-4-pyridyl)-2-[2-(1-methylimidazol-2-yl)ethyl]-7-phenyl-[1,2,4]triazolo[4,3-c]pyrimidin-3-one], the “A2A pKi” value in assay [1] is listed as 8.2. Besides, the “A1 pKi” value in assay [2] came to 6.1.
`Cc1cc(-c2c(-c3ccccc3)nc(N)n3c(=O)n(CCc4ncc[nH]4)nc23)cc(C)n1` [Example 1-3, 5-amino-8-(2,6-dimethyl-4-pyridyl)-2-[2-(1H-imidazol-2-yl)ethyl]-7-phenyl-[1,2,4]triazolo[4,3-c]pyrimidin-3-one]: the “A2A pKi” value in assay [1] came to 7.9. The “A1 pKi” value in assay [2] is listed as 5.9.
Consider `Cc1cc(-c2c(-c3ccccc3)nc(N)n3c(=O)n(CCc4nnn[nH]4)nc23)cc(C)n1` [Example 1-4, 5-amino-8-(2,6-dimethyl-4-pyridyl)-7-phenyl-2-[2-(1H-tetrazol-5-yl)ethyl]-[1,2,4]triazolo[4,3-c]pyrimidin-3-one], for which, in assay [1], the “A2A pKi” value came to 6.4. In addition, the “A1 pKi” value in assay [2] was below 5.4.
In the same order, the values of `Cc1cc(-c2c(-c3ccccc3)nc(N)n3c(=O)n(CCc4nnn(C)n4)nc23)cc(C)n1` [Example 1-6, 5-amino-8-(2,6-dimethyl-4-pyridyl)-2-[2-(2-methyltetrazol-5-yl)ethyl]-7-phenyl-[1,2,4]triazolo[4,3-c]pyrimidin-3-one] are 7.2 and 5.7.
The matching figures for `CCn1nccc1CCn1nc2c(-c3cc(C)nc(C)c3)c(-c3ccccc3)nc(N)n2c1=O` [Example 1-7, 5-amino-8-(2,6-dimethyl-4-pyridyl)-2-[2-(2-ethylpyrazol-3-yl)ethyl]-7-phenyl-[1,2,4]triazolo[4,3-c]pyrimidin-3-one]: 8.0 and 6.6.
In the same order, the values of `Cc1cc(-c2c(-c3ccccc3)nc(N)n3c(=O)n(C(C)c4cccs4)nc23)cc(C)n1` (centres unmarked) [Example 1-8, 5-amino-8-(2,6-dimethyl-4-pyridyl)-7-phenyl-2-[1-(2-thienyl)ethyl]-[1,2,4]triazolo[4,3-c]pyrimidin-3-one] are 7.8 and 6.7.
With `Cc1cc(-c2c(-c3ccccc3)nc(N)n3c(=O)n(Cc4ncco4)nc23)cc(C)n1` [Example 1-9, 5-amino-8-(2,6-dimethyl-4-pyridyl)-2-(oxazol-2-ylmethyl)-7-phenyl-[1,2,4]triazolo[4,3-c]pyrimidin-3-one], the “A2A pKi” value in assay [1] is 9.1. In addition, the “A1 pKi” value in assay [2] amounted to 7.0.
In the same order, the values of `Cc1cc(-c2c(-c3ccccc3)nc(N)n3c(=O)n(Cc4cocn4)nc23)cc(C)n1` [Example 1-10, 5-amino-8-(2,6-dimethyl-4-pyridyl)-2-(oxazol-4-ylmethyl)-7-phenyl-[1,2,4]triazolo[4,3-c]pyrimidin-3-one] are 9.2 and 6.8.
On to `Cc1cc(-c2c(-c3ccccc3)nc(N)n3c(=O)n(Cc4nccn4C)nc23)cc(C)n1` [Example 1-11, 5-amino-8-(2,6-dimethyl-4-pyridyl)-2-[(1-methylimidazol-2-yl)methyl]-7-phenyl-[1,2,4]triazolo[4,3-c]pyrimidin-3-one], for which, in assay [1], the “A2A pKi” value was 9.8. For the same molecule, the “A1 pKi” value in assay [2] came out at 7.8.
The matching figures for `Cc1cc(-c2c(-c3ccccc3)nc(N)n3c(=O)n(Cc4ccnn4C)nc23)cc(C)n1` [Example 1-12, 5-amino-8-(2,6-dimethyl-4-pyridyl)-2-[(2-methylpyrazol-3-yl)methyl]-7-phenyl-[1,2,4]triazolo[4,3-c]pyrimidin-3-one]: 9.0 and 7.1.
The matching figures for `Cc1cc(-c2c(-c3ccccc3)nc(N)n3c(=O)n(Cc4ccon4)nc23)cc(C)n1` [Example 1-13, 5-amino-8-(2,6-dimethyl-4-pyridyl)-2-(isoxazol-3-ylmethyl)-7-phenyl-[1,2,4]triazolo[4,3-c]pyrimidin-3-one]: 8.9 and 6.8.
The matching figures for `Cc1cc(-c2c(-c3ccccc3)nc(N)n3c(=O)n(Cc4coc(C)n4)nc23)cc(C)n1` [Example 1-15, 5-amino-8-(2,6-dimethyl-4-pyridyl)-2-[(2-methyloxazol-4-yl)methyl]-7-phenyl-[1,2,4]triazolo[4,3-c]pyrimidin-3-one]: 8.9 and 6.7.
Turning to `Cc1cc(-c2c(-c3ccccc3)nc(N)n3c(=O)n(Cc4nnc(C)o4)nc23)cc(C)n1` [Example 1-17, 5-amino-8-(2,6-dimethyl-4-pyridyl)-2-[(5-methyl-1,3,4-oxadiazol-2-yl)methyl]-7-phenyl-[1,2,4]triazolo[4,3-c]pyrimidin-3-one], the “A2A pKi” value in assay [1] came out at 8.2. Also, in assay [2], the “A1 pKi” value is 6.2.
The matching figures for `Cc1cc(-c2c(-c3ccccc3)nc(N)n3c(=O)n(Cc4cncn4C)nc23)cc(C)n1` [Example 1-18, 5-amino-8-(2,6-dimethyl-4-pyridyl)-2-[(3-methylimidazol-4-yl)methyl]-7-phenyl-[1,2,4]triazolo[4,3-c]pyrimidin-3-one]: 8.5 and 6.9.
The matching figures for `Cc1cc(-c2c(-c3ccccc3)nc(N)n3c(=O)n(Cc4nonc4C)nc23)cc(C)n1` [Example 1-19, 5-amino-8-(2,6-dimethyl-4-pyridyl)-2-[(4-methyl-1,2,5-oxadiazol-3-yl)methyl]-7-phenyl-[1,2,4]triazolo[4,3-c]pyrimidin-3-one]: 9.6 and 7.2.
In the same order, the values of `Cc1cc(-c2c(-c3ccccc3)nc(N)n3c(=O)n(Cc4noc(C)n4)nc23)cc(C)n1` [Example 1-20, 5-amino-8-(2,6-dimethyl-4-pyridyl)-2-[(5-methyl-1,2,4-oxadiazol-3-yl)methyl]-7-phenyl-[1,2,4]triazolo[4,3-c]pyrimidin-3-one] are 8.7 and 6.6.
`Cc1cc(-c2c(-c3ccccc3)nc(N)n3c(=O)n(Cc4cnc[nH]4)nc23)cc(C)n1` [Example 1-23, 5-amino-8-(2,6-dimethyl-4-pyridyl)-2-(1H-imidazol-5-ylmethyl)-7-phenyl-[1,2,4]triazolo[4,3-c]pyrimidin-3-one]: in assay [1], the “A2A pKi” value was found to be 8.3. Besides, the “A1 pKi” value in assay [2] came to 6.6.
Consider `Cc1cc(-c2c(-c3ccccc3)nc(N)n3c(=O)n(Cc4ccn[nH]4)nc23)cc(C)n1` [Example 1-25, 5-amino-8-(2,6-dimethyl-4-pyridyl)-7-phenyl-2-(1H-pyrazol-5-ylmethyl)-[1,2,4]triazolo[4,3-c]pyrimidin-3-one], for which the “A2A pKi” value in assay [1] worked out at 8.6. Also, the “A1 pKi” value in assay [2] was determined as 7.1.
For `Cc1cc(-c2c(-c3ccccc3)nc(N)n3c(=O)n(Cc4nn[nH]n4)nc23)cc(C)n1` [Example 1-26, 5-amino-8-(2,6-dimethyl-4-pyridyl)-7-phenyl-2-(2H-tetrazol-5-ylmethyl)-[1,2,4]triazolo[4,3-c]pyrimidin-3-one], the “A2A pKi” value in assay [1] turned out to be 6.4. Also, the “A1 pKi” value in assay [2] is reported as below 5.4.
The matching figures for `Cc1cc(-c2c(-c3ccccc3)nc(N)n3c(=O)n(Cc4nnco4)nc23)cc(C)n1` [Example 1-27, 5-amino-8-(2,6-dimethyl-4-pyridyl)-2-(1,3,4-oxadiazol-2-ylmethyl)-7-phenyl-[1,2,4]triazolo[4,3-c]pyrimidin-3-one]: 8.1 and 6.6.
In the same order, the values of `Cc1cc(-c2c(-c3ccccc3)nc(N)n3c(=O)n(Cc4nncn4C)nc23)cc(C)n1` [Example 1-28, 5-amino-8-(2,6-dimethyl-4-pyridyl)-2-[(4-methyl-1,2,4-triazol-3-yl)methyl]-7-phenyl-[1,2,4]triazolo[4,3-c]pyrimidin-3-one] are 7.7 and 6.5.
Turning to `Cc1cc(-c2c(-c3ccccc3)nc(N)n3c(=O)n(C[C@@H]4CCCO4)nc23)cc(C)n1` [Example 2-17, 5-amino-8-(2,6-dimethyl-4-pyridyl)-7-phenyl-2-[[(2S)-tetrahydrofuran-2-yl]methyl]-[1,2,4]triazolo[4,3-c]pyrimidin-3-one], in assay [1], the “A2A pKi” value is reported as 8.6.
Still for that read-out and setting: under `Cc1cc(-c2c(-c3ccccc3)nc(N)n3c(=O)n(C[C@H]4C[C@@H](O)CN4C)nc23)cc(C)n1` [Example 2-24, 5-amino-8-(2,6-dimethyl-4-pyridyl)-2-[[(2R,4R)-4-hydroxy-1-methyl-pyrrolidin-2-yl]methyl]-7-phenyl-[1,2,4]triazolo[4,3-c]pyrimidin-3-one] stands 8.8; under `Cc1cc(-c2c(-c3ccccc3)nc(N)n3c(=O)n(C[C@@H]4C[C@H](O)CN4C)nc23)cc(C)n1` [Example 2-25, 5-amino-8-(2,6-dimethyl-4-pyridyl)-2-[[(2S,4S)-4-hydroxy-1-methyl-pyrrolidin-2-yl]methyl]-7-phenyl-[1,2,4]triazolo[4,3-c]pyrimidin-3-one], 8.8.
